Holding throughout (experiment): drug sensitivity score (DSS) from 5-dose viability curve (DSS (area-based score, 0 = no response)); higher = more sensitive (stronger viability inhibition); extreme values may be limits of the assay
Assay [1] concerns MDCK p60AmotL2-inducible + doxycycline (p60AmotL2 expressing). Particulars: doxycycline: 10 ng/mL; 72 h. A digest of the protocol:
(§1)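 Pre-spotted 384-well plates held 528 oncology drugs, each at five doses from 1 to 10,000 nM. Parental and doxycycline-inducible MDCK cells, exposed beforehand to 10 ng/mL doxycycline in the medium, were added at 2000 cells/well and incubated 72 h at 37 °C. Viability came from CellTiter-Glo luminescence normalized per plate to vehicle and positive controls, and the Breeze pipeline fitted dose-response curves to give drug sensitivity scores.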

Assay [2] has as its system MDCK wild-type + doxycycline. Particulars: doxycycline: 10 ng/mL; 72 h. A digest of the protocol:
as §1

In assay [3] the test system is MDCK wild-type - doxycycline. Conditions: doxycycline: none; 72 h. A digest of the protocol: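 For 72 h at 37 °C, parental MDCK cells (no doxycycline, 2000 cells/well) were incubated on 384-well plates pre-spotted with 528 oncology drugs at five doses from 1 to 10,000 nM. CellTiter-Glo luminescence served as the viability readout, scaled per plate between vehicle and positive controls. The Breeze pipeline then fitted dose-response curves to yield drug sensitivity scores.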

The structures appear in SMILES notation.

With `FC(F)(F)c1ccc(CNc2ccc(Cc3c[nH]c4ncc(Cl)cc34)cn2)cn1` [Pexidartinib], the figures for the drug sensitivity score in assay [1], in assay [2] and in assay [3] were 0.1, 0 and 0, respectively.

Consider `CCc1cnn2c(NCc3ccc[n+]([O-])c3)cc(N3CCCC[C@H]3CCO)nc12` [Dinaciclib], for which the drug sensitivity score in assay [1] worked out at 16.3; in assay [2], 17; in assay [3], 18.3.

As for `CO[C@H]1C[C@@H]2CC[C@@H](C)[C@@](O)(O2)C(=O)C(=O)N2CCCC[C@H]2C(=O)O[C@H]([C@H](C)C[C@@H]2CC[C@@H](O)[C@H](OC)C2)CC(=O)[C@H](C)/C=C(\C)[C@@H](O)[C@@H](OC)C(=O)[C@H](C)C[C@H](C)/C=C/C=C/C=C/1C` [Sirolimus], the drug sensitivity score in assay [1] is 7.6; in assay [2], 2.3; in assay [3] it was 1.9.

Regarding `Cn1c(Nc2ccc(C(F)(F)F)cc2)nc2cc(Oc3ccnc(-c4ncc(C(F)(F)F)[nH]4)c3)ccc21` [NVP-RAF265], the drug sensitivity score in assay [1], in assay [2] and in assay [3] was 0 throughout.

For `Cc1nc(NC(=O)N2CCC[C@H]2C(N)=O)sc1-c1ccnc(C(C)(C)C(F)(F)F)c1` [Alpelisib], the drug sensitivity score came out at 1.6 in assay [1], 0 in assay [2] and 0.7 in assay [3].

Take `CCOc1cc2ncc(C#N)c(Nc3ccc(OCc4ccccn4)c(Cl)c3)c2cc1NC(=O)/C=C/CN(C)C` [Neratinib]: the drug sensitivity score was found to be 16.8 in assay [1], 7.5 in assay [2] and 5.1 in assay [3].

Consider `CN(C)C(=N)NC(=N)N` [Metformin], for which the drug sensitivity score in assay [1], in assay [2] and in assay [3] was 0 each time.

With `CNC(=O)c1cc(COc2nnc(Nc3ccc(Cl)cc3)c3ccoc23)ccn1` [Telatinib], the drug sensitivity score in assay [1], in assay [2] and in assay [3] was 0 in each case.

As to `COc1cc2c(Nc3ccc(Cl)c(Cl)c3F)ncnc2cc1OC[C@@H]1C[C@@H]2CN(C)C[C@@H]2C1` [Tesevatinib], the drug sensitivity score in assay [1] worked out at 18.9; in assay [2], 8.5; in assay [3], 5.8.

With `CC1(C)NC(=O)N(c2ccc([N+](=O)[O-])c(C(F)(F)F)c2)C1=O` [Nilutamide], the drug sensitivity score in assay [1], in assay [2] and in assay [3] was 0 each time.

As to `C=CC(=O)N1CC/C(=C\c2ccc(F)c([N+](=O)[O-])c2)C(=O)/C(=C/c2ccc(F)c([N+](=O)[O-])c2)C1` [VLX1570], the results for the drug sensitivity score in assay [1], in assay [2] and in assay [3] were 17.2, 17.3 and 15.5, respectively.

Take `Cc1ccc(NC(=O)c2ccc(CN3CCN(C)CC3)cc2)cc1Nc1nc(-c2cccnc2)cs1` [Masitinib]: the drug sensitivity score stood at 5.3 in assay [1], 8.2 in assay [2] and 5.7 in assay [3].

Consider `Oc1nc(-c2ccc(C(F)(F)F)cc2)nc2c1CSCC2` [XAV-939], for which the drug sensitivity score in assay [1], in assay [2] and in assay [3] was 0 throughout.

With `C[C@@H](Oc1cc(-n2cnc3ccc(CN4CCN(C)CC4)cc32)sc1C(N)=O)c1ccccc1C(F)(F)F`, the drug sensitivity score in assay [1] was 32.1; in assay [2], 35.1; in assay [3] it was 29.5.

In the case of `NCC(=O)Nc1ccc(-n2nc(C(F)(F)F)cc2-c2ccc3c(ccc4ccccc43)c2)cc1`, the drug sensitivity score in assay [1], in assay [2] and in assay [3] was 0 throughout.

Consider `COc1cc2c(Oc3ccc4[nH]c(C)cc4c3F)ncnc2cc1OCCCN1CCCC1` [Cediranib], for which the drug sensitivity score in assay [1] turned out to be 0.3; in assay [2] it was 0; in assay [3], 0.

Take `O=C1c2c(O)ccc(O)c2C(=O)c2c(NCCNCCO)ccc(NCCNCCO)c21` [Mitoxantrone]: the figures for the drug sensitivity score in assay [1], in assay [2] and in assay [3] were 15.5, 8.9 and 7.1, respectively.

For the compound `Cc1sc2c(c1C)C(c1ccc(Cl)cc1)=N[C@@H](CC(=O)Nc1ccc(O)cc1)c1nnc(C)n1-2` [Birabresib], the drug sensitivity score in assay [1] came to 16.6; in assay [2], 10.7; in assay [3] it was 5.8.

As to `O[C@H]1CC[C@H](Nc2ncc3nc(Nc4c(F)cc(F)cc4F)n([C@H]4CCOC4)c3n2)CC1` [Tanzisertib], the drug sensitivity score in assay [1] was determined as 0.9; in assay [2], 0.1; in assay [3], 0.

As to `Cc1ccc(C(=O)Nc2ccc(Oc3cc4cnn(C)c4cc3-c3cn[nH]c3)c(F)c2)c(=O)n1-c1ccc(F)cc1` [Merestinib], the drug sensitivity score stood at 0 in assay [1], 0 in assay [2] and 0.9 in assay [3].

As for `C[C@@H]1C=C2C(=O)O[C@@H]3CC[C@H](C1)[C@]23O` [Galiellalactone], the drug sensitivity score in assay [1] is 2.5; in assay [2] it was 2; in assay [3] it was 4.3.

As to `CNC(=O)c1ccc(N2C(=S)N(c3ccc(C#N)c(C(F)(F)F)c3)C(=O)C2(C)C)cc1F` [Enzalutamide], the drug sensitivity score in assay [1], in assay [2] and in assay [3] was 0 throughout.

For the compound `COc1cc2ncnc(Oc3cccc(NC(=O)Nc4cc(C(C)(C)C(F)(F)F)on4)c3)c2cc1OC`, the drug sensitivity score in assay [1], in assay [2] and in assay [3] was 0 throughout.

As for `CC[C@@H]1C(=O)N(C)c2cnc(Nc3ccc(C(=O)N[C@H]4CC[C@H](N5CCN(CC6CC6)CC5)CC4)cc3OC)nc2N1C(C)C` [Volasertib], the drug sensitivity score in assay [1] came out at 17.4; in assay [2], 15.3; in assay [3] it was 16.6.

For the compound `COc1ccc(COc2cc3oc(=O)c4cc(C(C)O)ccc4c3cc2OC)cc1` (stereo unspecified) [Palomid-529], the drug sensitivity score in assay [1] was found to be 0.1; in assay [2] it was 0; in assay [3], 0.

As for `CCOC(=O)CCNc1cc(N2CCc3ccccc3CC2)nc(-c2ccccn2)n1` [GSK-J4], the drug sensitivity score stood at 3.9 in assay [1], 3.8 in assay [2] and 13.7 in assay [3].

In the case of `COc1cc(NS(C)(=O)=O)ccc1Nc1c2ccccc2nc2ccccc12` [Amsacrine], the drug sensitivity score was found to be 15.3 in assay [1], 8.8 in assay [2] and 7.6 in assay [3].

For `CO[C@@H]1[C@H](N(C)C(=O)c2ccccc2)C[C@H]2O[C@]1(C)n1c3ccccc3c3c4c(c5c6ccccc6n2c5c31)C(=O)NC4` [Midostaurin], the drug sensitivity score in assay [1] came out at 13.9; in assay [2], 11.5; in assay [3], 13.2.

Consider `CN(C)c1cc2c(cc1Sc1nc3c(N)nccc3n1CCNCC(C)(C)C)OCO2` [CUDC-305], for which the drug sensitivity score in assay [1] stood at 18; in assay [2] it was 17; in assay [3], 17.7.

For the compound `CCCCCCCCCCCCCCCCOP(=O)([O-])OCC[N+](C)(C)C` [Miltefosine], the values for the drug sensitivity score in assay [1], in assay [2] and in assay [3] were 5.3, 5.2 and 4.9, respectively.

`COc1cc(C(=O)O)ccc1NC(=O)[C@@H]1N[C@@H](CC(C)(C)C)[C@](C#N)(c2ccc(Cl)cc2F)[C@H]1c1cccc(Cl)c1F` [Idasanutlin]: the drug sensitivity score in assay [1] was 16.2; in assay [2], 12.6; in assay [3], 8.4.

In the case of `COc1cccc2c1C(=O)c1c(O)c3c(c(O)c1C2=O)C[C@@](O)(/C(CO)=N/NC(=O)CCCCCN1C(=O)C=CC1=O)C[C@@H]3O[C@H]1C[C@H](N)[C@H](O)[C@H](C)O1` [Aldoxorubicin], the drug sensitivity score in assay [1] was 11.2; in assay [2], 8.6; in assay [3] it was 4.5.

`COc1cc2c(cc1OC(C)C)[C@H](c1ccc(Cl)cc1)N(c1ccc(N(C)C[C@H]3CC[C@H](N4CCN(C)C(=O)C4)CC3)cc1)C(=O)C2` [NVP-CGM097]: the values for the drug sensitivity score in assay [1], in assay [2] and in assay [3] were 7.6, 5.3 and 5.4, respectively.

Consider `Nc1cc(F)ccc1NC(=O)c1ccc(CNC(=O)/C=C/c2cccnc2)cc1` [Tucidinostat], for which the drug sensitivity score in assay [1] came to 2.6; in assay [2], 2.4; in assay [3], 0.8.

Consider `C#Cc1cccc(Nc2ncnc3cc(OCCOC)c(OCCOC)cc23)c1` [Erlotinib], for which the drug sensitivity score stood at 15.4 in assay [1], 4.5 in assay [2] and 3.4 in assay [3].

In the case of `CCc1cc2c(cc1N1CCC(N3CCOCC3)CC1)C(C)(C)c1[nH]c3cc(C#N)ccc3c1C2=O` [Alectinib], the drug sensitivity score in assay [1], in assay [2] and in assay [3] was 0 throughout.

Turning to `NC[C@@](O)(c1ccc(Cl)cc1)c1ccc(-c2cn[nH]c2)cc1`, the drug sensitivity score in assay [1], in assay [2] and in assay [3] was 0 each time.

The record behind these values is the supplement of paper PMC11003180.
